The values below come from US20260137687A1, “GTPase INHIBITORS AND USES THEREOF” (The Regents of The University of California, priority 2022, published 2026).

The target of one data set is T1, K-Ras(G12R)·GDP (Homo sapiens, UniProt P01116, G12R).
T1 construct: human K-Ras (G12R, aa 1-169); 6xHis tag + TEV cleavage site (N, cleaved yes); made in house; host or cells: E. coli BL21(DE3)
As to the kind of experiment: Differential scanning fluorimetry. Type of data set: binding. The protocol: The protein of interest was diluted with SEC Buffer [20 mM HEPES 7.5, 150 mM NaCl, 1 mM MgCl2] to 8 μM. This solution was dispensed into wells of a white 96-well PCR plate in triplicate (25 μL/well). Fluorescence was measured at 0.5° C. temperature intervals every 30 s from 25° C. to 95° C. on a Bio-Rad CFX96 qPCR system using the FRET setting. Each data set was normalized to the highest fluorescence and the normalized fluorescence reading was plotted against temperature in GraphPad Prism 8.0. Tm values were determined as the temperature(s) corresponding to the maximum(ma) of the first derivative of the curve.
Background: In DSF a fluorescence change marks the thermal transition of the protein.

The nature of data set [1]: Stability in aqueous buffers. Type of data set: physicochemical. To be noted: over a range of pH.
The next data set concerns the target K-Ras(G12R) (Homo sapiens, UniProt P01116, G12R). As to the kind of experiment: Sos- or EDTA-mediated nucleotide exchange assay. Type of data set: biochemical. Also on record: human K-Ras (G12R, aa 1-169); 6xHis tag + TEV cleavage site (N, cleaved yes); made in house; host or cells: E. coli BL21(DE3). To be noted: BODIPY-GDP exchanged for unlabeled GDP; compound-bound K-Ras(G12R). The protocol: This assay was performed as previously reported (38-41) with slight modifications. BODIPY-GDP-loaded K-Ras proteins were prepared freshly as follows. To a 10 μM solution of K-Ras(G12R)·GDP or K-Ras(G12R)·GDP·3 in SEC Buffer (1 mL) was added sequentially BODIPY-GDP (5 mM, 40 μL, Thermo Fisher, final concentration 200 μM) and Na-EDTA pH 8.0 (0.5 M, 5 μL, final concentration 2.5 mM). The mixture was incubated at 23° C. for 1 h, and a solution of MgCl2 (1.0 M, 20 μL, […]) was added to the reaction mixture. The protein solution was run through a PD-10 column to remove the excess nucleotide following the manufacturer's protocol. Briefly, sample (˜1.0 mL) and excess buffer (1.5 mL) were loaded onto the column (equilibrated with NucEx Buffer), and desalted protein was eluted with NucEx Buffer (3.5 mL). Desalted protein was diluted 1:1 to a concentration of roughly 1.5 μM in NucEx Buffer. 12 μL of this solution (triplicate for each condition) was added to wells of a black 384-well low-volume assay plate (Corning 4514). […] The plate was immediately placed in a TECAN Spark 20M plate reader, and fluorescence for BODIPY (excitation 488 nm, emission 520 nm) was read every 30 s over 1 h. Fluorescence intensity was normalized to values at time 0 and plotted again time. […]

With `CC(=O)C(O)(O)C(=O)N1[C@@H]2CC[C@H]1CN(c1nc(OCC34CCCN3CCC4)nc3c(F)c(-c4cccc5cccc(Cl)c45)ncc13)C2` [compound 3, 1-((1R,5S)-3-(7-(8-chloronaphthalen-1-yl)-8-fluoro-2-((tetrahydro-1H-pyrrolizin-7a(5H)-yl)methoxy)pyrido[4,3-d]pyrimidin-4-yl)-3,8-diazabicyclo[3.2.1]octan-8-yl)-2,2-dihydroxybutane-1,3-dione], the “increase of melting temperature of K-Ras(G12R)·GDP·3 adduct vs unmodified K-Ras(G12R)·GDP” value on K-Ras(G12R)·GDP was 9.1 °C. Besides, in data set [1], the “stability in aqueous buffers” value was “stable”. For the same compound, on K-Ras(G12R), the Sos-mediated nucleotide exchange entry is “inhibited” and the “rate of EDTA-mediated nucleotide exchange” value was “significantly reduced”.
